Values of other authors, collected in patent publication US20050197327A1, “Compounds, compositions, and methods” (priority 2003, published 2005).

System: A549 cells
Conditions: data provided by National Cancer Institute

Row | SMILES | GI50
1 | CC(=O)O[C@H]1C(=O)[C@@]2(C)[C@H]([C@H](OC(=O)c3ccccc3)[C@]3(O)C[C@H](OC(=O)[C@H](O)[C@@H](NC(=O)c4ccccc4)c4ccccc4)C(C)=C1C3(C)C)[C@]1(OC(C)=O)CO[C@@H]1C[C@@H]2O [paclitaxel] | 4 nM
2 | NC(=O)NO [hydroxyurea] | 500000 nM
3 | O=c1[nH]cc(F)c(=O)[nH]1 [5-fluorouracil] | 1000 nM
4 | COc1cccc2c1C(=O)c1c(O)c3c(c(O)c1C2=O)C[C@@](O)(C(=O)CO)C[C@@H]3O[C@H]1C[C@H](N)[C@H](O)[C@H](C)O1 [doxorubicin] | 63 nM
